From publication PMC7600710, “The Inhibition of Serine/Threonine Protein Phosphatase Type 5 Mediates Cantharidin Toxicity to Control Periplaneta americana (L.)” (Insects, 2020)

B1: serine/threonine protein phosphatase type 5 (PaPP5), catalytic domain PaPP5c (Periplaneta americana) (protein)
chain: YNGPKLEDGKVTLEFMQHLMKTYKEQGKLHRKYAYKILLDVKQLFMSQPSLVEITIPDDSKFTVCGDIHGQFYDLMNIFNLNGLPSPTNPYLFNGDFVDRGSFSVECIFTLFGFKLLYPEHFFMSRGNHESQTMNQMYGFEGEVKAKYTAQMSELFTEVYNWLPLAHCLNGRILVMHGGLFSRDDVTLEEIKEIDRNRQPPEEGLMCELLWSDPQPQVGRAPSKRGVGVQFGPDVTKKFLELNGLDYVIRSHEVKNEGYEVAHDGKCITVFSAPNYCDTMGNKGAFIVLKGKDMKPQYTTYEAVPHPNVKPVAYANSLLSLIC

Tests used:
[1] = molecular target: T1, serine/threonine protein phosphatase type 5 (PaPP5), catalytic domain PaPP5c (Periplaneta americana, UniProt A0A3Q9NNI4); assay: DiFMUP fluorescence phosphatase inhibition assay on purified recombinant PaPP5c; assay type: biochemical
T1 construct: gene PP5; catalytic domain of PP5 (167-489 amino acids, PP5c), His-tagged, expressed in E. coli; full-length GenBank AZT88974.1
T1 sequence (A0A3Q9NNI4 167-489): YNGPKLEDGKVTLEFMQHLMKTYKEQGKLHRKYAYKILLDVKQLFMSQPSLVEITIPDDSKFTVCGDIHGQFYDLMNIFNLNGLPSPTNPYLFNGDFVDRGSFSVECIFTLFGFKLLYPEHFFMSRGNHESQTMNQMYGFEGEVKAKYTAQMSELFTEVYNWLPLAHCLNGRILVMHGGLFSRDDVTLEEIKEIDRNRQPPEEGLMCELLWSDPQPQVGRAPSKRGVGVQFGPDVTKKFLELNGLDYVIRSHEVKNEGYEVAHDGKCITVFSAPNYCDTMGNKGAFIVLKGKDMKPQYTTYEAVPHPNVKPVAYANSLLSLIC

[2] = substrate: Cc1cc(=O)oc2c(F)c(OP(=O)(O)O)c(F)cc12; assay: purified protein; conditions: Mn2+ (MnCl2 in expression, dialysis and assay buffer)

Molecule	IC50 [1] [µM]	Km [2] [µM]
C[C@@]12C(=O)OC(=O)[C@]1(C)[C@H]1CC[C@@H]2O1 [Cantharidin]	0.39 ± 0.04	
O=C1OC(=O)[C@H]2[C@@H]1[C@@H]1CC[C@H]2O1 [Norcantharidin]	1.87 ± 0.23	
B1		144.10 ± 9.730
